From US20060167094A1, “Satiety agent” (priority 2005, published 2006)
Values joined by “and” are separate entries in the source; they are usually repeats but may differ in a detail not shown here. Equal entries are not always repeated.

How the values were obtained:
[1] = Appetite perceptions (VAS scores) during and after 90 min intraduodenal infusion; format: in vivo, human
Method: Each subject was studied on three occasions, separated by 3-10 days, to evaluate, in a double-blind, randomized fashion, the effects of intraduodenal infusions of 1) C12, 2) C10, or 3) control solution for 90 min on appetite perceptions, energy intake, APD pressures, and plasma CCK and GLP-1 concentrations.
(§1) Once the catheter was positioned correctly, fasting motility was monitored until the occurrence of phase III of the interdigestive migrating motor complex (MMC). Immediately after the cessation of phase III activity [at time t=−15 min], a baseline venous blood sample was taken, and a visual analog scale questionnaire (VAS) (see Measurements), assessing appetite-related sensations, was administered. At t=0 min (i.e., during phase I of the MMC), the duodenal infusion of 1) C12, 2) C10, or 3) control solution was commenced and continued for 90 min. APD pressures were monitored throughout the infusion period; blood samples were taken, and the VAS administered every 15 min from t=0 min until t=90 min. At t=90 min, the infusion was terminated, and the subject was immediately extubated and offered a cold buffet-style meal, the composition of which is provided in Table 1. The amount of food offered was in excess of what the subject was expected to consume. The subject was given 30 min (i.e., t=90 min to t=120 min) to consume the meal and instructed to eat until comfortably full. After ingestion of the meal, the subject was monitored for a further 30 min, a further VAS was completed, and blood samples were taken at t=120 and 150 min. The intravenous cannula was then removed, and the subject was allowed to leave the laboratory.
Appetite sensations and energy intake. Subjective sensations of appetite, including hunger, fullness, desire to eat, prospective consumption (“how much food do you think you could eat if you were given a meal now?”), were assessed using validated VASs (Sensations of nausea and bloating were also assessed. Each VAS evaluated a sensation on a 100-mm horizontal line, where 0 represented “sensation is not felt at all” and 100 represented “sensation is felt the greatest.” Subjects were asked to place a vertical stroke on the 100-mm line in relation to what they were feeling at that particular point in time.
Baseline (“0”) values were calculated as the mean of values obtained at t=−15 and 0 min for VAS scores and plasma hormone concentrations and between t=−15 to 0 min for basal pyloric pressures, number, and amplitude of IPPWs, antral and duodenal PWs, and total number of duodenal PWSs. Basal pyloric pressures and the number and amplitude of IPPWs were expressed as means over 15-min segments during the 90-min infusion period. Numbers and amplitudes of antral and duodenal PWs were expressed as total number and mean values, respectively, for the 90-min infusion period. Duodenal PWSs were expressed as the total number of waves travelling over two, three, four, five, six, and seven channels during the 90-min infusion period. All data, except for plasma CCK and GLP-1 concentrations, were expressed as changes from baseline.
VAS scores, basal pyloric pressures, number and amplitude of IPPWs, and plasma hormone concentrations were analyzed by repeated-measures mixed model analysis of covariance (ANCOVA), with baseline as the covariate and time (0-90 min, at 15-min intervals) and treatment as within-subject factors. One-way ANOVA was used to assess the effect of treatment on energy intake, time taken to complete eating, total numbers and mean amplitudes of antral and duodenal PWs, and total number of duodenal PWSs. A logarithmic transformation was applied to nausea scores, antral amplitudes, and duodenal PWSs travelling 7.5 and 9 cm to better address the underlying assumptions of the models used (as these variables lacked normal distribution). If significance or near significance ([…]) was found, post hoc comparisons of least-squares means using Student's t-tests were performed. […]

[2] = Tolerability of intraduodenal fatty acid infusion (pilot study and randomized study); format: in vivo, human
Method: Fatty acid solutions were prepared using 5.3 g of commercially available food grade saturated free fatty acids, lauric (C12:0) and decanoic (C10:0) acid (Sigma-Aldrich; Milwaukee, Wis.). C12 was dissolved in 0.89 g NaOH (Sigma-Aldrich; St. Louis, Mo.) and distilled water to a total volume of 250 ml. C12 was maintained in solution by heating it to 37° C., with a resulting pH of 8.2. C10 was also dissolved in NaOH (1.21 g), and the pH of the C10 and control (distilled water) solutions was adjusted to 8.2 by the addition of NaOH. All solutions were prepared on the morning of the study and infused at 37° C. […] We chose to infuse the fatty acid and control solutions intraduodenally to ensure uniformity of doses across subjects and study days.
However, during the C12 infusion, the first subject tested reported severe nausea and only tolerated the infusion for 30 min. A second subject, who again reported severe nausea, tolerated the infusion for 60 min.

[3] = system: plasma GLP-1; assay: Plasma GLP-1 concentrations by radioimmunoassay; format: in vivo, human
Method: as §1
Venous blood samples (10 ml) were collected in ice-chilled EDTA-treated tubes containing 400 kIU aprotinin (Trasylol, Bayer Australia) per millilitre of blood. Plasma was separated by centrifugation (3,200 rpm, 15 min, 4° C.) within 30 min of collection and stored at −70° C. until assayed.
Plasma GLP-1 concentrations (in pmol/l) were measured by radioimmunoassay using an adaptation of a previously published method (4) Antibody, supplied by Prof. […] It is likely that this antibody also reacts with the degraded form of GLP-1(9-36) amide. Intra-assay CV was 17% and interassay CV was 18%, with a sensitivity of 1.5 pmol/l.

[4] = system: pancreatic bicarbonate secretion; details: luminal fatty acid; cited from earlier work
[5] = during 90 min intraduodenal infusion, 0.375 kcal/min, compared with control

Compound: CCCCCCCCCCCC(=O)O [C12, lauric acid]
- fullness (VAS) after meal ingestion ([1]; at 120 and 150 min, after the buffet meal): less after C12 than C10
- mean score for nausea after termination of infusion ([1]; by 120 min (infusion terminated at 90 min)): close to baseline
- scores for bloating (VAS) ([1]; during 90 min intraduodenal infusion, 0.375 kcal/min): increased the scores for bloating
- nausea scores (VAS) [1, 5]: increased nausea scores compared with control
- scores for hunger (VAS) [1, 5]: lower compared with control
- scores for prospective consumption (VAS) [1, 5]: lower compared with control
- scores for desire to eat (VAS) ([1]; during 90 min intraduodenal infusion, 0.375 kcal/min, healthy males, compared with control): lower compared with control
- subjects reporting nausea ([1]; during C12 infusion 0.375 kcal/min, randomized study of 8 subjects): Five of the eight
- time the infusion was tolerated ([2]; pilot study, 0.75 kcal/min (n=1)): ~60 min
- time the infusion was tolerated ([2]; pilot study, 1 kcal/min (n=1)): ~60 min
- adverse effect limiting the infusion ([2]; pilot study, 1 kcal/min and 0.75 kcal/min): severe nausea and vomiting
- adverse effect limiting the infusion ([2]; pilot study, 1.5 kcal/min): severe nausea
- time the infusion was tolerated ([2]; pilot study, 1.5 kcal/min, individual subjects): 30 min and 60 min
- time the infusion was tolerated ([2]; randomized study, 0.375 kcal/min, one subject with severe nausea): 30 min
- delay until plasma GLP-1 concentrations rose ([3]; after the start of infusion): 30 min
- plasma GLP-1 concentrations compared with control ([3]; during infusion, C12 effect from 30 to 90 min): increased plasma GLP-1
- plasma GLP-1 concentrations compared with C10 ([3]; from 45 to 90 min): increased plasma GLP-1
- plasma GLP-1 concentrations after meal ingestion ([3]; t=120 and 150 min, compared with control): higher after the C12 infusion compared with both control
- GLP-1 level higher than after ingestion of the buffet meal after the control infusion ([3]; versus level after ingestion of ~4,528 kJ): 40%
- secretion of pancreatic bicarbonate relative to C10, C16, C18:0, C18:1 and C18:2 [4]: more than twice as much
